Data on 22 compounds can be found in patent US11834463B2, “High affinity macrocyclic FKB51-inhibitors for treatment of psychiatric disorders” (priority 2020, dated 2023).

The structures appear in SMILES notation. Several values for one entry are separate records, joined by “and”; a condition that tells them apart may be missing. Equal values may be shown once. Read-outs that look alike come from different tables or passages of the source.

In one data set the target is T1, FKBP51FK1 (Homo sapiens, UniProt Q13451).
T1 sequence (Q13451 42-130 limits assumed): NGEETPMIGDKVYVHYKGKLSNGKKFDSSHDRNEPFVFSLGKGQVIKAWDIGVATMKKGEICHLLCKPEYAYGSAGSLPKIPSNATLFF
In words: biochemical. How it is done:
(§1) All macrocyclic compounds were tested in a competitive fluorescence polarization assay for binding towards FKBP51 as well as the homologs FKBP12, FKBP12.6 and FKBP52 (Table 1).
(§2) Example 8: […] of the Macrocyclic FKBP51 Ligands by SPPS

In a further data set the target is FKBP12 (Homo sapiens, UniProt P62942). In words: competitive fluorescence polarization assay, binding to FKBP12. As for the experimental part:
as §1, §2
Background: Fluorescence polarisation rises when a labelled molecule tumbles more slowly, as on binding a larger partner.

A further data set concerns the target FKBP12.6 (Homo sapiens, UniProt P68106). In words: competitive fluorescence polarization assay, binding to FKBP12.6. As for the experimental part: as §1, §2
Experiment in data set [1]: not given
This is another data set of the same source.

The mark [2] stands for this setting: FKBP51FK1 Ki [μM], Table 2, [a] standard error from three, [c] error from two independent measurements.
[3] abbreviates: Ki [nM] FKBP51FK1, Table 1, competitive Fluorescence Polarization Assay.
[4] abbreviates: Table 1, competitive Fluorescence Polarization Assay, read-out: Ki [nM] FKBP12.
[5] abbreviates: Table 1, competitive Fluorescence Polarization Assay, read-out: Ki [nM] FKBP12.6.

FKBP12, sequence (P62942 whole entry): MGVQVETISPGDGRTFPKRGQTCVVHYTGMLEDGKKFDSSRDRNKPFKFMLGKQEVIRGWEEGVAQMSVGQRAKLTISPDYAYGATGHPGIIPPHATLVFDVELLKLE
FKBP12.6, sequence (P68106 whole entry): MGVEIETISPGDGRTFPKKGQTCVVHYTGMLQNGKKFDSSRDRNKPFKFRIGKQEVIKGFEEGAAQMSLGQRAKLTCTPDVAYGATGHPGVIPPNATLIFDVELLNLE

`COc1ccc(CC[C@H]2OC(=O)[C@@H]3CCCCN3C(=O)[C@@H](C3CCCCC3)C/C=C/COCCOc3cccc2c3)cc1OC` registered a ring closure, isolated yield (from C=CCOCCOc1cccc([C@H](CCc2ccc(OC)c(OC)c2)OC(=O)[C@H]2CCCCN2C(=O)[C@H](CC=C)C2CCCCC2)c1, rcm bond, 18-membered ring, Grubbs II (0.1 eq), DCM, 0.5 mM, 30.0 °C, 2.5 h) of 92%.
For the compound `COc1ccc(CC[C@H]2OC(=O)[C@@H]3CCCCN3C(=O)[C@@H](C3CCCCC3)NC(=O)C(C)(C)NC(=O)COc3cc(O)cc2c3)cc1OC` [Compound 103, (2R,5S,12R)-12-cyclohexyl-2-[2-(3,4-dimethoxyphenyl)ethyl]-22-hydroxy-15,15-dimethyl-3,19-dioxa-10,13,16-triazatricyclo[18.3.1.0^5,10]tetracosa-1(24),20,22-triene-4,11,14,17-tetrone], under “from H-Aib-dChg-Pip-[O-(R)-CH(CH2CH2-3,4-dimethoxyphenyl)-C6H3(O-resin)-OCH2CO]-OH?, amide bond, 17-membered ring, resin, with chain assembly”, the ring closure, isolated yield was determined as 20%. The “affinity (in words)” value at FKBP51FK1 is listed as “bound similarly to the glycine derivative 83”. For the same compound, at FKBP51FK1 (setting [2]), the Ki (usually a dissociation constant, usually derived from enzyme kinetics or from competition with a known ligand) came out at 0.37 µM.
As for `COc1ccc(CC[C@H]2OC(=O)[C@@H]3CCCCN3C(=O)[C@@H](C3CCCCC3)NC(=O)CCNC(=O)COc3cccc2c3)cc1OC` [Compound 93, (2R,5S,12R)-12-cyclohexyl-2-[2-(3,4-dimethoxyphenyl)ethyl]-3,20-dioxa-10,13,17-triazatricyclo[19.3.1.0^5,10]pentacosa-1(25),21,23-triene-4,11,14,18-tetrone], at FKBP51FK1, the “affinity (in words)” value was “reduced affinity”. The Ki was 7.4 µM on FKBP51FK1 (setting [2]); greater than 80000 nM at FKBP12 (Table 2, read-out: FKBP12 Ki); greater than 80000 nM on FKBP12.6 (Table 2, read-out: FKBP12.6 Ki).
For `COc1ccc(CC[C@H]2OC(=O)[C@@H]3CCCCN3C(=O)[C@@H](C3CCCCC3)c3cc(OC)c(OC)c(c3)OCCCOC/C=C/COc3cccc2c3)cc1OC` [38-(E)], the Ki was found to be 0.093 µM at FKBP51FK1 (setting [3]), 269 nM at FKBP12 (setting [4]) and 144 nM on FKBP12.6 (setting [5]).
`COc1ccc(CC[C@H]2OC(=O)[C@@H]3CCCCN3C(=O)[C@@H](C3CCCCC3)c3cc(OC)c(c(OC)c3)OCCCOc3cccc2c3)cc1OC` [Compound 56]: the Ki came to 0.067 µM at FKBP51FK1 (setting [3]), 384 nM at FKBP12 (setting [4]) and 211 nM on FKBP12.6 (setting [5]).
As for `COc1ccc(CC[C@@H]2OC(=O)[C@H]3CCCCN3C(=O)[C@@H](C3CCCCC3)c3cc(OC)c(c(OC)c3)OCCCOc3cccc2c3)cc1OC`, under “from COc1ccc(CC[C@H](OC(=O)[C@H]2CCCCN2C(=O)[C@H](c2cc(OC)c(OCCCI)c(OC)c2)C2CCCCC2)c2cccc(O)c2)cc1OC, ether bond, 19-membered ring, K2CO3 (2 equiv), MeCN, 0.5 mM”, the ring closure, isolated yield came out at 81%.
For the compound `COc1ccc(CC[C@H]2OC(=O)[C@@H]3CCCCN3C(=O)[C@@H](C3CCCCC3)c3cc(OC)c(OC)c(c3)OCCC(=O)CCOc3cccc2c3)cc1OC` [Compound 61a], the Ki at FKBP51FK1 (setting [3]) was found to be 0.008 µM; at FKBP12 (setting [4]), 38 nM; on FKBP12.6 (setting [5]), 22 nM.
As to `COc1ccc(CC[C@H]2OC(=O)[C@@H]3CCCCN3C(=O)[C@@H](C3CCCCC3)c3cc(OC)c(c(OC)c3)OCCOc3cccc2c3)cc1OC` [Compound 55], the Ki was determined as 0.064 µM at FKBP51FK1 (setting [3]), 412 nM on FKBP12 (setting [4]) and 190 nM on FKBP12.6 (setting [5]).
Turning to `COc1ccc(CC[C@H]2OC(=O)[C@@H]3CCCCN3C(=O)[C@@H](C3CCCCC3)NC(=O)[C@@H]3CCCN3C(=O)COc3cccc2c3)cc1OC` [Compound 92, (9S,12R,19S,22R)-12-cyclohexyl-22-[2-(3,4-dimethoxyphenyl)ethyl]-2,21-dioxa-5,11,14-triazatetracyclo[21.3.1.0^5,9.0^14,19]heptacosa-1(26),23(27),24-triene-4,10,13,20-tetrone], the “affinity (in words)” value on FKBP51FK1 is given as “substantially reduced affinity”. The Ki on FKBP12 (Table 2, read-out: FKBP12 Ki) is greater than 80000 nM; at FKBP12.6 (Table 2, read-out: FKBP12.6 Ki), greater than 80000 nM.
Take `COc1ccc(CC[C@H]2OC(=O)[C@@H]3CCCCN3C(=O)[C@@H](C3CCCCC3)c3cc(OC)c(c(OC)c3)OCC/C=C\COc3cccc2c3)cc1OC` [32-(Z)]: the values for the Ki at FKBP51FK1 (setting [3]), at FKBP12 (setting [4]) and at FKBP12.6 (setting [5]) were 0.08 µM, 189 nM and 237 nM, respectively.
Consider `COc1ccc(CC[C@H]2OC(=O)[C@@H]3CCCCN3C(=O)[C@@H](C3CCCCC3)c3cc(OC)c(c(OC)c3)OCCCCCOc3cccc2c3)cc1OC` [Compound 40], for which the Ki on FKBP51FK1 (setting [3]) worked out at 0.102 µM; on FKBP12 (setting [4]), 204 nM; at FKBP12.6 (setting [5]), 198 nM.
For `COc1ccc(CC[C@H]2OC(=O)[C@@H]3CCCCN3C(=O)[C@@H](C3CCCCC3)c3cc(OC)c(c(OC)c3)OC/C=C/COc3cccc2c3)cc1OC` [31-(E)], the Ki on FKBP51FK1 (setting [3]) was found to be 0.056 µM; on FKBP12 (setting [4]), 289 nM; on FKBP12.6 (setting [5]), 263 nM.
On to `COc1ccc(CC[C@H]2OC(=O)[C@@H]3CCCCN3C(=O)[C@@H](C3CCCCC3)c3cc(OC)c(c(OC)c3)OCCOCCCCOc3cccc2c3)cc1OC` [Compound 41], for which the Ki at FKBP51FK1 (setting [3]) came to 0.118 µM; on FKBP12 (setting [4]), 449 nM; on FKBP12.6 (setting [5]), 230 nM.
With `COc1ccc(CC[C@@H]2OC(=O)[C@H]3CCCCN3C(=O)[C@@H](C3CCCCC3)c3cc(OC)c(OC)c(c3)OCCCOCC=CCOc3cccc2c3)cc1OC`, the ring closure, yield after HPLC in data set [1] (from C=CCOCCCOc1cc([C@@H](C(=O)N2CCCC[C@@H]2C(=O)O[C@@H](CCc2ccc(OC)c(OC)c2)c2cccc(OCC=C)c2)C2CCCCC2)cc(OC)c1OC, rcm bond, 23-membered ring, Grubbs II (0.1 equiv)/1,4-benzoquinone, DCM, 1.0 mM) is 58% and 33%.
On to `COc1ccc(CC[C@H]2OC(=O)[C@@H]3CCCCN3C(=O)[C@@H](C3CCCCC3)c3cc(OC)c(OC)c(c3)OCCOc3cccc2c3)cc1OC` [Compound 57], for which the Ki at FKBP51FK1 (setting [3]) is 0.047 µM; on FKBP12 (setting [4]), 308 nM; at FKBP12.6 (setting [5]) it was 78 nM.
For `COc1ccc(CC[C@@H]2OC(=O)[C@H]3CCCCN3C(=O)[C@@H](C3CCCCC3)c3cc(OC)c(OC)c(c3)OCCCOc3cccc2c3)cc1OC`, the ring closure, yield after HPLC in data set [1] (from COc1ccc(CC[C@H](OC(=O)[C@H]2CCCCN2C(=O)[C@H](c2cc(OC)c(OC)c(OCCCI)c2)C2CCCCC2)c2cccc(O)c2)cc1OC, ether bond, 18-membered ring, K2CO3 (2 equiv), MeCN, 0.3 mM) is 26%.
In the case of `COc1ccc(CC[C@@H](OC(=O)[C@@H]2CCCCN2C(=O)[C@H](c2cc(OC)c(OC)c(OC)c2)C2CCCCC2)c2cccc(OCC(=O)O)c2)cc1OC` [SAFit1, reference compound], the Ki came to 0.004 ± 0.001 µM on FKBP51FK1 (read-out: FKBP51FK1 Ki, Table 2, [a] standard error from three, [c] error from two independent measurements); 163 ± 9 nM on FKBP12 (Table 2, read-out: FKBP12 Ki); 19 ± 2 nM at FKBP12.6 (Table 2, read-out: FKBP12.6 Ki).
With `COc1ccc(CC[C@@H]2OC(=O)[C@H]3CCCCN3C(=O)[C@@H](C3CCCCC3)c3cc(OC)c(OC)c(c3)OCCOc3cccc2c3)cc1OC`, the ring closure, yield after HPLC in data set [1] (from COc1ccc(CC[C@H](OC(=O)[C@H]2CCCCN2C(=O)[C@H](c2cc(OC)c(OC)c(OCCI)c2)C2CCCCC2)c2cccc(O)c2)cc1OC, ether bond, 17-membered ring, K2CO3 (2 equiv), MeCN, 1.0 mM) stood at 42%.
For `COc1ccc(CCC2OC(=O)C3CCCCN3C(=O)C(C3CCCCC3)c3cc(OC)c(OC)c(c3)OC/C=C/COc3cccc2c3)cc1OC` (stereo not drawn) [35-(E)], the Ki on FKBP51FK1 (Ki FKBP51FK1, Table 1, unit μM printed in the cell) was greater than 5 µM; at FKBP12 (Table 1, unit μM printed in the cell, read-out: Ki FKBP12) it was greater than 100000 nM; on FKBP12.6 (Table 1, unit μM printed in the cell, read-out: Ki FKBP12.6), greater than 100000 nM.
`COc1ccc(CCC2OC(=O)C3CCCCN3C(=O)C(C3CCCCC3)c3cc(OC)c(OC)c(c3)OC/C=C\COc3cccc2c3)cc1OC` (stereo not drawn) [35-(Z)]: the values for the Ki at FKBP51FK1 (setting [3]), at FKBP12 (setting [4]) and on FKBP12.6 (setting [5]) were 0.093 µM, 173 nM and 192 nM, respectively.
Turning to `COc1ccc(CC[C@H]2OC(=O)[C@@H]3CCCCN3C(=O)[C@@H](C3CCCCC3)NC(=O)[C@H](C)NC(=O)COc3cccc2c3)cc1OC` [Compound 91, (2R,5S,12R,15S)-12-cyclohexyl-2-[2-(3,4-dimethoxyphenyl)ethyl]-15-methyl-3,19-dioxa-10,13,16-triazatricyclo[18.3.1.0^5,10]tetracosa-1(24),20,22-triene-4,11,14,17-tetrone], on FKBP51FK1, the “affinity (in words)” value is listed as “bound more weakly”. Further, the Ki at FKBP12 (Table 2, read-out: FKBP12 Ki) is greater than 80000 nM; on FKBP12.6 (Table 2, read-out: FKBP12.6 Ki), greater than 80000 nM.
Regarding `COc1ccc(CC[C@H]2OC(=O)[C@@H]3CCCCN3C(=O)[C@@H](C3CCCCC3)c3cc(OC)c(OC)c(c3)OCCOC/C=C\COc3cccc2c3)cc1OC` [37-(Z)], the Ki at FKBP51FK1 (setting [3]) turned out to be 0.113 µM; on FKBP12 (setting [4]), 270 nM; at FKBP12.6 (setting [5]) it was 190 nM.
